Laboratory results: publication PMC9299702, “Maytansinol Derivatives: Side Reactions as a Chance for New Tubulin Binders” (Chemistry (Weinheim an Der Bergstrasse, Germany), 2021)
Read-outs that look alike come from different tables or passages of the source.

Assays:
[1] = tested on: A549 cells; experiment: Cytotoxicity (antiproliferation assay) in A549; type: cell-based, human
[2] = tested on: A549 cells; experiment: Effects on cellular microtubules by immunofluorescence microscopy; type: cell-based, human; settings: fluorescence microscopy; for concentration at which the microtubule destabilizing effect is observed in interphasic cells: interphase; for concentration at which the microtubule destabilizing effect is observed in mitotic cells: mitosis
Excerpt: To do so, we performed fluorescence microscopy using A549 cells.
The effect of these compounds on the microtubule network and mitotic spindle was characterized in A549 tumor cells by fluorescence microscopy. […] Cells were immunostained for A)–I) α‐tubulin or A’)–I’) DNA, and A’’)–I’’) the images obtained were merged (tubulin in green and DNA in magenta). A)–A’’) Interphase cell treated with DMSO; notice the regular microtubule network evenly distributed in the cytoplasm. B)–B’’) Control metaphase cell with a normally distributed bipolar mitotic spindle in which all chromosomes are positioned in the metaphase plate. […] All images are shown at the same scale; scale bar: 10 μm.
In interphase the microtubule network covers the whole cytoplasm, while in dividing cells during metaphase there are regular bipolar spindles that allow the correct positioning and segregation of chromosomes in the subsequent division steps.
Indirect immunofluorescence images were obtained using A549 cells plated at a density of 130,000 cells/ml onto 12mm

[3] = tested on: A2780AD cells; experiment: Cytotoxicity (antiproliferation assay) in A2780AD (pGp overexpressing); type: cell-based, human; settings: for IC50: read-out: IC50 A2780AD; for R/S (resistance index): A2780AD versus A2780
[4] = tested on: A2780 cells; experiment: Cytotoxicity (antiproliferation assay) in A2780; type: cell-based, human
[5] = target: T1, tubulin (Bos taurus, UniProt Q6B856); experiment: Inhibition of tubulin assembly (turbidity time courses); type: biochemical, calf; settings: 25 μM tubulin in GAB, 27.5 μM compound, stoichiometric ratio
T1 construct: Purified calf brain tubulin and chemicals were obtained as previously described; from tissue; host or cells: calf brain
T1 sequence (Q6B856 whole entry): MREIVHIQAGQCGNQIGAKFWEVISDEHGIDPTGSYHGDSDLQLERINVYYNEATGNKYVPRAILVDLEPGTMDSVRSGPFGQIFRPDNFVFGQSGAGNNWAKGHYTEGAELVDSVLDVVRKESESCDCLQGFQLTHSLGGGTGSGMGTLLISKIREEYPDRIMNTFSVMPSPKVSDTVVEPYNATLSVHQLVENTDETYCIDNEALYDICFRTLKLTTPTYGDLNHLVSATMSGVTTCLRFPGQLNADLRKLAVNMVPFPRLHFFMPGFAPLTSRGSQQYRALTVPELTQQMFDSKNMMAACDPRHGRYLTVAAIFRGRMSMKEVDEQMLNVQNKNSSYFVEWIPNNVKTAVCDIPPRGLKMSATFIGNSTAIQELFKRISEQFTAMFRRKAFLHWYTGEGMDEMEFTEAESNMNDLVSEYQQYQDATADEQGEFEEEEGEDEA
T1 sequence (P81947 whole entry partner): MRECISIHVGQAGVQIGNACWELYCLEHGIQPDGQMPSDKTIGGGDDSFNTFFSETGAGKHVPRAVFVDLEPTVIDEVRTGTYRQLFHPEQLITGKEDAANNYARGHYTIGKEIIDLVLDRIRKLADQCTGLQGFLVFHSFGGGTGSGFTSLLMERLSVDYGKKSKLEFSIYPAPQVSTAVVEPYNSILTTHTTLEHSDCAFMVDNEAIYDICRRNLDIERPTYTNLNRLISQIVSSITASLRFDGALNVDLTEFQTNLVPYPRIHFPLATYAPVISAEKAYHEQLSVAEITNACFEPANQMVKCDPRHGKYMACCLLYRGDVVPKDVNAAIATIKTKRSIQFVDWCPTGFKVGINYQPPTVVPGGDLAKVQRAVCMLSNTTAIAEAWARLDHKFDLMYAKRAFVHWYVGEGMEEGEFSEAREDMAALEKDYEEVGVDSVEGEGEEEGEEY

[6] = target: T2, maytansine site of tubulin (Bos taurus, UniProt Q6B856); experiment: biochemical; type: binding, calf
T2 construct: Purified calf brain tubulin and chemicals were obtained as previously described; from tissue; host or cells: calf brain
T2 sequence (Q6B856 whole entry): as the sequence (Q6B856 whole entry) above
T2 sequence (P81947 whole entry partner): as the sequence (P81947 whole entry partner) above

[7] = tested on: tubulin; set-up: method as in PMID 21043240; settings: compared with maytansine; cited from earlier work
[8] = Homo sapiens, A549 cell line, read-out: IC50 A549
[9] = Homo sapiens, A2780AD cell line, pGp overexpressing
[10] = Homo sapiens, A2780 cell line, read-out: IC50 A2780
[11] = competition against Fc maytansine
[12] = A549 cell line, read-out: IC50 A549
[13] = A2780AD cell line, pGp overexpressing
[14] = A2780 cell line, read-out: IC50 A2780
[15] = competition against Fc maytansine, read-out: K d
[16] = Homo sapiens, A549, read-out: IC50 A549
[17] = Homo sapiens, A2780, read-out: IC50 A2780

COc1cc2cc(c1Cl)N(C)C(=O)C[C@H](OC(=O)[C@H](C)N(C)C(C)=O)[C@]1(C)O[C@H]1[C@H](C)[C@@H]1C[C@@](O)(NC(=O)O1)[C@H](OC)/C=C/C=C(\C)C2 [1 a, Maytansine, reference compound]
IC50 [1, 8]: 0.278 ± 0.04 nM
concentration at which the microtubule destabilizing effect is observed in interphasic cells [2]: 5 nM
concentration at which the microtubule destabilizing effect is observed in mitotic cells [2]: 5 nM
IC50 [3, 9]: 19.5 ± 1.14 nM
IC50 [4, 10]: 0.31 ± 0.02 nM
Inhibition of tubulin assembly [5]: completely abolishes tubulin polymerization
Kd [6]: 14 ± 2 nM
Mean K b [6, 11]: 9.0±1.3×10^7 M^−1

COc1cc2cc(c1Cl)N(C)C(=O)CC(O)C1(C)OC1C(C)C1CC(O)(NC(=O)O1)C(OC)/C=C/C=C(\C)C2 (centres unmarked) [1 b, Maytansinol]
IC50 [1, 8]: 60 ± 3 nM
inhibitory activity on tubulin polymerization [7]: weaker inhibitory activity on tubulin polymerization than maytansine
concentration at which the microtubule destabilizing effect is observed in interphasic cells [2]: 100 nM
concentration at which the microtubule destabilizing effect is observed in mitotic cells [2]: 50 nM
IC50 [3, 9]: 1460 ± 148 nM
IC50 [4, 10]: 23.8 ± 1.65 nM
Inhibition of tubulin assembly [5]: noticeable effect at stoichiometric concentrations
Kd [6]: 780 ± 40 nM
Mean K b [6, 11]: 1.30±0.06×10^6 M^−1

COc1cc2cc(c1Cl)N(C)C(=O)C[C@H](OC(=O)c1ccccc1)[C@]1(C)O[C@H]1[C@H](C)[C@@H]1C[C@@](O)(NC(=O)O1)[C@H](OC)/C=C/C=C(\C)C2 [4 a]
IC50 [1, 12]: 0.24 ± 0.03 nM
concentration at which the microtubule destabilizing effect is observed in interphasic cells [2]: 10 nM
concentration at which the microtubule destabilizing effect is observed in mitotic cells [2]: 5 nM
IC50 [3, 13]: 11 ± 1 nM
R/S (resistance index) [3]: 100
IC50 [4, 14]: 0.11 ± 0.01 nM
Mean K b [6, 11]: 2.0±0.×10^7 M^−1
Kd [6, 15]: 51 ± 3 nM

COc1cc2cc(c1Cl)N(C)C(=O)CC(OC(C)=O)C1(C)OC1C(C)C1CC(O)(NC(=O)O1)C(OC)C=CC=C(C)C2 (centres unmarked) [4 b]
IC50 [1, 12]: 1.2 ± 0.3 nM
IC50 [3, 13]: 20 ± 1 nM
R/S (resistance index) [3]: 80
IC50 [4, 14]: 0.25 ± 0.01 nM
Mean K b [6, 11]: 9±1×10^7 M^−1
Kd [6, 15]: 11 ± 1 nM

C#CCCCCC(=O)OC1CC(=O)N(C)c2cc(cc(OC)c2Cl)CC(C)=CC=CC(OC)C2(O)CC(OC(=O)N2)C(C)C2OC12C (centres unmarked) [4 c]
IC50 [1, 12]: 0.07 ± 0.008 nM
IC50 [3, 13]: 4.7 ± 0.6 nM
R/S (resistance index) [3]: 142
IC50 [4, 14]: 0.033 ± 0.003 nM
Mean K b [6, 11]: 5.4±0.5×10^7 M^−1
Kd [6, 15]: 20 ± 2 nM

COc1cc2cc(c1Cl)N(C)C(=O)CC(OC(=O)c1ccccc1)C1(C)OC1C(C)C1C=C(NC(=O)O1)C(OC)C=CC=C(C)C2 (centres unmarked) [5 a]
IC50 [1, 12]: > 570 nM
IC50 [3, 13]: 2630 ± 187 nM
IC50 [4, 14]: 338 ± 4.65 nM
Inhibition of tubulin assembly [5]: strong inhibitors that completely abolished microtubule assembly
Mean K b [6, 11]: 9.2±0.3×10^5 M^−1
Kd [6, 15]: 1090 ± 40 nM

COc1cc2cc(c1Cl)N(C)C(=O)CC(OC(C)=O)C1(C)OC1C(C)C1C=C(NC(=O)O1)C(OC)C=CC=C(C)C2 (centres unmarked) [5 b]
IC50 [1, 12]: 190 ± 40 nM
IC50 [3, 13]: > 6160 nM
IC50 [4, 14]: 130 ± 20 nM
Inhibition of tubulin assembly [5]: strong inhibitors that completely abolished microtubule assembly
Mean K b [6, 11]: 1.17±0.04×10^6 M^−1
Kd [6, 15]: 860 ± 30 nM

C#CCCCCC(=O)OC1CC(=O)N(C)c2cc(cc(OC)c2Cl)CC(C)=CC=CC(OC)C2=CC(OC(=O)N2)C(C)C2OC12C (centres unmarked) [5 c]
IC50 [1, 12]: 320 ± 40 nM
IC50 [3, 13]: > 7960 nM
IC50 [4, 14]: 225 ± 15 nM
Inhibition of tubulin assembly [5]: mild
Mean K b [6, 11]: 5.6±0.4×10^5 M^−1
Kd [6, 15]: 1800 ± 120 nM

COc1cc2cc(c1Cl)N(C)C(=O)CC(O)C1(C)OC1C(C)C1C=C(C(OC)C=CC=C(C)C2)N(C(=O)c2ccccc2)C(=O)O1 (centres unmarked) [6 a]
IC50 [1, 12]: > 1030 nM
IC50 [3, 13]: 13500 ± 623 nM
IC50 [4, 14]: 2090 ± 99 nM
Inhibition of tubulin assembly [5]: strong inhibitors that completely abolished microtubule assembly
Mean K b [6, 11]: 6±2×10^5 M^−1

COc1cc2cc(c1Cl)N(C)C(=O)CC(OC(=O)c1ccccc1)C1(C)OC1C(C)C1C=C(C(OC)C=CC=C(C)C2)N(C(=O)c2ccccc2)C(=O)O1 (centres unmarked) [7 a]
IC50 [1, 12]: 47 ± 6 nM
IC50 [3, 13]: 3500 ± 320 nM
Inhibition of tubulin assembly [5]: mild
Mean K b [6, 11]: 5.0±0.5×10^5 M^−1
Kd [6, 15]: 2000 ± 200 nM

COc1cc2cc(c1Cl)N(C)C(=O)CC(O)C1(C)OC1C(C)C=CC(=O)C(OC)C=CC=C(C)C2 (centres unmarked) [Compound 2]
IC50 [1, 16]: 15 ± 2 nM
IC50 ([3]; Homo sapiens, A2780AD): 981 ± 201 nM
IC50 [4, 17]: 9.64 ± 0.97 nM
Inhibition of tubulin assembly [5]: weak inhibition
Mean K b [6, 11]: 1.42±0.08×10^6 M^−1
Kd [6, 15]: 720 ± 50 nM

COc1cc2cc(c1Cl)N(C)C(=O)CC(O)C1(C)OC1C(C)C1C=C(NC(=O)O1)C(OC)C=CC=C(C)C2 (centres unmarked) [Compound 3]
IC50 [1, 16]: 28 ± 2 nM
IC50 ([3]; Homo sapiens, A2780AD): > 19700 nM
IC50 [4, 17]: 74 ± 4 nM
Inhibition of tubulin assembly [5]: mild
Mean K b [6, 11]: 1.20±0.03×10^6 M^−1
Kd [6, 15]: 830 ± 20 nM
